Consider 2 molecules from PMC9851200, “Multiparameter phenotypic screening for endogenous TFEB and TFE3 translocation identifies novel chemical series modulating lysosome function” (Autophagy, 2022).

The structures appear in SMILES notation.

What all share (type): binding
The target in experiment [1] is T1, kinases (KINOMEscan panel) (Homo sapiens, UniProt O76039).
T1 sequence (O76039 1-960): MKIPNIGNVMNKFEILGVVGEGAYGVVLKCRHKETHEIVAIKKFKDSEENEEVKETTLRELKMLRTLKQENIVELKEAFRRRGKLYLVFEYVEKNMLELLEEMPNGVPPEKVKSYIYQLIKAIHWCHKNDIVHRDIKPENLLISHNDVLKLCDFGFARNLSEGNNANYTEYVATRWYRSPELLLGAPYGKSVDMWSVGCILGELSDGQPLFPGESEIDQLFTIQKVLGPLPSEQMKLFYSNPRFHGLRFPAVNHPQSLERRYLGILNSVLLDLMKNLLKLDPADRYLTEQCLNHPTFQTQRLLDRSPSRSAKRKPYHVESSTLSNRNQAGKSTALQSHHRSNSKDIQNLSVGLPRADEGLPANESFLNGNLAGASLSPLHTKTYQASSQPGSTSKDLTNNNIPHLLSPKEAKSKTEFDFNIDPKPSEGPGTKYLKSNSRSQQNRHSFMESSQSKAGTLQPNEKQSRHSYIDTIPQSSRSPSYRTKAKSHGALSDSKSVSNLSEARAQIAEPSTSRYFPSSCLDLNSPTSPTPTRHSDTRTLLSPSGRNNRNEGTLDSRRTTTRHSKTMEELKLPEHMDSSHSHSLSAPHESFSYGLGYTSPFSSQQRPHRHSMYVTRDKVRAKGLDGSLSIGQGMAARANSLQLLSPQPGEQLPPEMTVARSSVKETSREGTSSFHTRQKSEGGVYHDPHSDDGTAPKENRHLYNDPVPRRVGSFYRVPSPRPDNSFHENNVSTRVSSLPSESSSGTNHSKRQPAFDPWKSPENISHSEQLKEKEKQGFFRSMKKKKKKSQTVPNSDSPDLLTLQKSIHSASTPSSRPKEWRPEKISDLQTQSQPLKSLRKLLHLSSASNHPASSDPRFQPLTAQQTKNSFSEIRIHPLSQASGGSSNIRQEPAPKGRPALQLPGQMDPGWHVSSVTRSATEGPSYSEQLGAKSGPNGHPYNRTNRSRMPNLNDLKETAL
The settings on record: kinase CDKL5; NEW KINOMEscan.

The target in experiment [2] is T2, kinases (KINOMEscan panel) (Homo sapiens, UniProt O95835).
T2 sequence (O95835 1-1130): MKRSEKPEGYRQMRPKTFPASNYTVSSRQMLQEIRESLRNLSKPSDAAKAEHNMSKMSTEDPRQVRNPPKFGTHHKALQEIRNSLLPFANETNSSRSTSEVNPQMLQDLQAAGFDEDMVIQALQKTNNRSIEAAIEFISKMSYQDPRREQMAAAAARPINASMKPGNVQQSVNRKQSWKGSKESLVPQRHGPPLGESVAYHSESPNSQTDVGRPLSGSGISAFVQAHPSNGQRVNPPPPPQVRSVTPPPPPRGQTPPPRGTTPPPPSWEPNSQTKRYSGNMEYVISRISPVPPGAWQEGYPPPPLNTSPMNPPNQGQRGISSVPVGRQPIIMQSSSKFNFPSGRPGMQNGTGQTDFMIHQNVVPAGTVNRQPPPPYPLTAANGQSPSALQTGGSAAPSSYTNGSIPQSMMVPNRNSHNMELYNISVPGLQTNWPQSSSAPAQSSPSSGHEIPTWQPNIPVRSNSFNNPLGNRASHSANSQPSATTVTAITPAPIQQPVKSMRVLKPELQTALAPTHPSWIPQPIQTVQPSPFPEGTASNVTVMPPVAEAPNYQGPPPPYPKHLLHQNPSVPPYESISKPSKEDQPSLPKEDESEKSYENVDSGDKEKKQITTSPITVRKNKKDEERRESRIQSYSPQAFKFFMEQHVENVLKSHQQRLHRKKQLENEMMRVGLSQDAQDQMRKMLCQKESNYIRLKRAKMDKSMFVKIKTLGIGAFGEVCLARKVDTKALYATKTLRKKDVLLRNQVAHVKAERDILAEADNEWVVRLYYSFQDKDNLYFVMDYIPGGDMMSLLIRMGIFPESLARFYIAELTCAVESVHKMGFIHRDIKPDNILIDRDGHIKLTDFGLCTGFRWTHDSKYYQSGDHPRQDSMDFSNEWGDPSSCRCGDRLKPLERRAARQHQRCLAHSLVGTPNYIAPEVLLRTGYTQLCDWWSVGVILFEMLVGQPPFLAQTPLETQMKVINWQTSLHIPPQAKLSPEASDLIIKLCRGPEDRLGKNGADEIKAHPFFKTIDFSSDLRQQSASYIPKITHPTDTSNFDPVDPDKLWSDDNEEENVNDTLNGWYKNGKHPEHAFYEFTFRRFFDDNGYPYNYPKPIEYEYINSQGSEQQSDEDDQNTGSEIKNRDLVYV
The following applies: LATS1; NEW KINOMEscan.

The target of experiment [3] is kinases (KINOMEscan panel) (Homo sapiens, UniProt P22455). The following applies: NEW KINOMEscan.
In experiment [4] the target is kinases (KINOMEscan panel) (Homo sapiens, UniProt P31749). The following applies: kinase AKT1; NEW KINOMEscan.
In experiment [5] the target is T3, kinases (KINOMEscan panel) (Homo sapiens, UniProt Q9UBE8).
T3 sequence (Q9UBE8 1-527): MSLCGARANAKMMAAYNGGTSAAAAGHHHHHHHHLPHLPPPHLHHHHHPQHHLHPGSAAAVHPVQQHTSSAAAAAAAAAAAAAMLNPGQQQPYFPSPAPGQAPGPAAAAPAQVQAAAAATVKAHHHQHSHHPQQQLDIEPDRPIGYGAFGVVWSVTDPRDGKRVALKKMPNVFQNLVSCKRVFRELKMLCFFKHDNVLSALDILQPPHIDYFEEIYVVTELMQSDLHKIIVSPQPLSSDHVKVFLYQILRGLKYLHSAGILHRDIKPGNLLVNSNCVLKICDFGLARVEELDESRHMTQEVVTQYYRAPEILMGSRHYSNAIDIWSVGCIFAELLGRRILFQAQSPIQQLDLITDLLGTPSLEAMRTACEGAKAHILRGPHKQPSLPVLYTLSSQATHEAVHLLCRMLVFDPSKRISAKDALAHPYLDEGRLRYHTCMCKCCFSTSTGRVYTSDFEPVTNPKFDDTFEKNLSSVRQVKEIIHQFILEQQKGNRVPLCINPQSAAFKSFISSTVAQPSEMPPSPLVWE
The settings on record: NLK; NEW KINOMEscan.

Experiment [6] deals with kinases (KINOMEscan panel) (Homo sapiens, UniProt Q9UBF8). The following applies: kinase PI4KB; NEW KINOMEscan.
In experiment [7] the target is kinases (KINOMEscan panel) (Homo sapiens, UniProt Q9UPE1). The settings on record: SRPK3; NEW KINOMEscan.
Sequence of kinases (KINOMEscan panel) (Homo sapiens, UniProt Q9UPE1) (Q9UPE1 whole entry): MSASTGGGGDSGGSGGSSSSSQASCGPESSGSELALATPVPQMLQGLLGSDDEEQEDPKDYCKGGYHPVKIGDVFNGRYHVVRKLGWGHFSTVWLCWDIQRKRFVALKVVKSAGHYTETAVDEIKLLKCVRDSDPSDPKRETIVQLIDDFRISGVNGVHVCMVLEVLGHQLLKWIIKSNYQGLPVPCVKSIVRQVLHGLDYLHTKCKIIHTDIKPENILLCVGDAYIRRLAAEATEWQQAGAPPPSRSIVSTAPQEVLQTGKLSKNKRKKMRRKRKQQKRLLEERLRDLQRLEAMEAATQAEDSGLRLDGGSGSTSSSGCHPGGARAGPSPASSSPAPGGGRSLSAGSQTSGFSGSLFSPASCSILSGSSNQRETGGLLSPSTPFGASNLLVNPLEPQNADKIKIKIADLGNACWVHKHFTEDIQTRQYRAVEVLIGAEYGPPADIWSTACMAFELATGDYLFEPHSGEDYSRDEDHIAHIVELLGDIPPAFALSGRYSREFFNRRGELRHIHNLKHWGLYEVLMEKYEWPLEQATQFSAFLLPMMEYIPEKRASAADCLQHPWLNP

Sequence of kinases (KINOMEscan panel) (Homo sapiens, UniProt P31749) (P31749 whole entry): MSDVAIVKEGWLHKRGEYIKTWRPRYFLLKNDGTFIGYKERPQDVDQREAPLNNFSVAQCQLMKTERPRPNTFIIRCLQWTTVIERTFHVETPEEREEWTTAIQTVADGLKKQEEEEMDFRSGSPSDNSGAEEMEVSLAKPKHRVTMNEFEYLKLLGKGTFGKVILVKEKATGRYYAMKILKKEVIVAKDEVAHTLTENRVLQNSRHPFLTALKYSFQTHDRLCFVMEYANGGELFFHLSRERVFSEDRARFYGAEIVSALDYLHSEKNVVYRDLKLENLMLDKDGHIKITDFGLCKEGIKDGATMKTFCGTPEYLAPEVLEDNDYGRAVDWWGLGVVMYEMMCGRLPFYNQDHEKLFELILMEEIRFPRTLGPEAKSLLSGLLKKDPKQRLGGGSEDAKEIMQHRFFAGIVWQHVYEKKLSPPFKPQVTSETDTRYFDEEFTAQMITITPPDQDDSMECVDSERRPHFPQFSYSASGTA
Sequence of kinases (KINOMEscan panel) (Homo sapiens, UniProt P22455) (P22455 22-802): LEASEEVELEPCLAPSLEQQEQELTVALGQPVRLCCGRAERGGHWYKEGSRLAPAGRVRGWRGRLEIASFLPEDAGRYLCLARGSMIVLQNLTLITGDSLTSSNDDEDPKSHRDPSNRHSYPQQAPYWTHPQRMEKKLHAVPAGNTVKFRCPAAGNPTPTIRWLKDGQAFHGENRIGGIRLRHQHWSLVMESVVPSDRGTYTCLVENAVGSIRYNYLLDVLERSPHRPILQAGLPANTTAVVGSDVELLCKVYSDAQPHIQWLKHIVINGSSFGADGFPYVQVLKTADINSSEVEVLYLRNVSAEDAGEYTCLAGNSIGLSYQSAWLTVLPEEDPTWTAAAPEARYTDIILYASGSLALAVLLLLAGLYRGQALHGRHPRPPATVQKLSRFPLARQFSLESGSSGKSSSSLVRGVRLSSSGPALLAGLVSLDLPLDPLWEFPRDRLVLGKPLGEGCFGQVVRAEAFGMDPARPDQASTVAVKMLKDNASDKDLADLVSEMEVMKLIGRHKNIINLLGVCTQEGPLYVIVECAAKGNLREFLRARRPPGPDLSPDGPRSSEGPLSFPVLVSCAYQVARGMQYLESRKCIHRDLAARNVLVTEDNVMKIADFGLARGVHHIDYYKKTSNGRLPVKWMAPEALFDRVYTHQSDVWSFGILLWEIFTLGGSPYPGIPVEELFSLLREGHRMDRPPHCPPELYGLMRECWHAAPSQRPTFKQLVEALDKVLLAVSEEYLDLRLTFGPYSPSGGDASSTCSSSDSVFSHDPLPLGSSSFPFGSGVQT
Sequence of kinases (KINOMEscan panel) (Homo sapiens, UniProt Q9UBF8) (Q9UBF8 whole entry): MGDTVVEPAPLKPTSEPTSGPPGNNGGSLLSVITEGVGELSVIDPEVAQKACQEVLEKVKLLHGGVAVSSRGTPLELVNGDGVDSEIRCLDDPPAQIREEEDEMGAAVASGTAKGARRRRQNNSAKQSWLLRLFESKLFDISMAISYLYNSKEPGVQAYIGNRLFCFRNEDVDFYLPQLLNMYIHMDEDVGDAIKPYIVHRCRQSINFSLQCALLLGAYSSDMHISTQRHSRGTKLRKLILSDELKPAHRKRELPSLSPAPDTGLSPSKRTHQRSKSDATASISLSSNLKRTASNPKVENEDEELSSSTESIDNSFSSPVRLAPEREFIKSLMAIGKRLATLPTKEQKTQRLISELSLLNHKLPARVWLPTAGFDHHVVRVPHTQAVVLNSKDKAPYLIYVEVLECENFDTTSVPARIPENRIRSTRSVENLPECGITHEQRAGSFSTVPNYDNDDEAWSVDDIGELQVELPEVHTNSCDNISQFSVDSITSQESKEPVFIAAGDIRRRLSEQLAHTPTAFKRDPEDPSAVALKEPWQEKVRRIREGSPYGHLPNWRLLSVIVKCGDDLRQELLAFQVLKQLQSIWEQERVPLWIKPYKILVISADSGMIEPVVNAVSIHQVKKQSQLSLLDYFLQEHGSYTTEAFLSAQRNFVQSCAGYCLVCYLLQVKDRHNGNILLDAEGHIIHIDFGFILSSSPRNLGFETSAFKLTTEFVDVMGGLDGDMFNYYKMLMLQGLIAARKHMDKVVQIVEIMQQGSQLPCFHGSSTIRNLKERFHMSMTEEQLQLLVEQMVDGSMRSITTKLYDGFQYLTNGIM

On to `Cc1cccc(-c2nc(N(C)c3ccc4ncsc4c3)c3ccccc3n2)n1` [NK-161], for which the “KINOMEscan CDKL5” value in experiment [1] is 3. The “KINOMEscan LATS1” value in experiment [2] worked out at 5. Moreover, in experiment [3], the “KINOMEscan FGFR4” value was 19. For the same molecule, the “KINOMEscan AKT1” value in experiment [4] worked out at 17. In experiment [5], the “KINOMEscan NLK” value is listed as 0. Besides, the “KINOMEscan PI4KB” value in experiment [6] came out at 0. Also, the “KINOMEscan SRPK3” value in experiment [7] was determined as 1.
With `Cc1cccc(-c2nc(Nc3ccc4nn(C)cc4c3)c3ccccc3n2)n1` [NK167], in experiment [1], the “KINOMEscan CDKL5” value is listed as 0. Also, the “KINOMEscan LATS1” value in experiment [2] stood at 0. In experiment [3], the “KINOMEscan FGFR4” value is listed as 16. In addition, the “KINOMEscan AKT1” value in experiment [4] worked out at 10. Further, in experiment [5], the “KINOMEscan NLK” value is 0. For the same molecule, the “KINOMEscan PI4KB” value in experiment [6] turned out to be 0. In experiment [7], the “KINOMEscan SRPK3” value is listed as 0.
